# Test results from the supplement of paper PMC10307832.
# Tests used:
# Test in all cases: relative viability (nuclei count vs DMSO), 5 days (fraction); higher = more cells survive
# [1] = compound: CO[C@@H]1[C@H](N(C)C(=O)c2ccccc2)C[C@H]2O[C@]1(C)n1c3ccccc3c3c4c(c5c6ccccc6n2c5c31)C(=O)NC4 [Midostaurin] + CC1(C)CCC(c2ccc(Cl)cc2)=C(CN2CCN(c3ccc(C(=O)NS(=O)(=O)c4ccc(N[C@H](CCN5CCOCC5)CSc5ccccc5)c(S(=O)(=O)C(F)(F)F)c4)cc3)CC2)C1 [Navitoclax] (partner 0.5 µM)
# Method in brief: (§1)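 Lung cancer cell lines were seeded in 1536-well plates and dosed by pin tool the next day, with either a single drug or a fixed anchor-drug dose combined with five library-drug doses (not always all listed) spaced in √10 steps. Five days later, one step fixed the cells and stained their nuclei (final 0.05% Triton X-100, 1% formaldehyde, 1 ug/ml Hoechst), and nuclei were counted on 4× images. Relative viability is the nuclei count in treated wells divided by the count in vehicle wells, and each value is the median of duplicate plates.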
# [2] = compound: COc1cc(-c2nn([C@H]3CC[C@H](N4CCN(C(C)=O)CC4)CC3)c3ncnc(N)c23)ccc1NC(=O)c1cc2ccccc2n1C + Nc1nc2[nH]cc(CCc3ccc(C(=O)N[C@@H](CCC(=O)O)C(=O)O)cc3)c2c(=O)[nH]1 [Pemetrexed] (partner 0.2 µM)
# Method in brief: as §1
# [3] = compound: CO[C@@H]1[C@H](N(C)C(=O)c2ccccc2)C[C@H]2O[C@]1(C)n1c3ccccc3c3c4c(c5c6ccccc6n2c5c31)C(=O)NC4 [Midostaurin] + C[C@]1(O)C[C@@H](c2nc(-c3ccc4ccc(-c5ccccc5)nc4c3)c3c(N)nccn32)C1 [Linsitinib] (partner 1 µM)
# Method in brief: as §1
# [4] = compound: COc1cc(-c2nn([C@H]3CC[C@H](N4CCN(C(C)=O)CC4)CC3)c3ncnc(N)c23)ccc1NC(=O)c1cc2ccccc2n1C + Cc1nc(NC(=O)N2CCC[C@H]2C(N)=O)sc1-c1ccnc(C(C)(C)C(F)(F)F)c1 [Alpelisib] (partner 2 µM)
# Method in brief: as §1
# [5] = compound: CO[C@@H]1[C@H](N(C)C(=O)c2ccccc2)C[C@H]2O[C@]1(C)n1c3ccccc3c3c4c(c5c6ccccc6n2c5c31)C(=O)NC4 [Midostaurin] + N=C(N)NC(=N)NCCc1ccccc1 [Phenformin] (partner 250 µM)
# Method in brief: as §1
cell line,measurement,setting,value
UMC-11,relative viability,[1]; first compound 0.01 µM,0.32
same,relative viability,[1]; first compound 0.03162 µM,0.346
same,relative viability,[1]; first compound 0.1 µM,0.241
same,relative viability,[1]; first compound 0.3162 µM,0.177
same,relative viability,[2]; first compound 0.0128 µM,0.694
same,relative viability,[2]; first compound 0.04048 µM,0.865
same,relative viability,[2]; first compound 0.128 µM,0.809
same,relative viability,[2]; first compound 1.28 µM,0.576
same,relative viability,[3]; first compound 0.01 µM,0.984
same,relative viability,[3]; first compound 0.03162 µM,0.998
same,relative viability,[3]; first compound 0.1 µM,0.95
same,relative viability,[3]; first compound 0.3162 µM,0.586
same,relative viability,[4]; first compound 0.0128 µM,0.892
same,relative viability,[4]; first compound 0.04048 µM,0.956
same,relative viability,[4]; first compound 0.128 µM,0.986
same,relative viability,[4]; first compound 1.28 µM,0.746
same,relative viability,[5]; first compound 0.01 µM,0.3
same,relative viability,[5]; first compound 0.03162 µM,0.328
same,relative viability,[5]; first compound 0.1 µM,0.32
same,relative viability,[5]; first compound 0.3162 µM,0.281
